Molecular target: T1, Rat liver microsomal squalene synthetase (Rattus norvegicus, UniProt Q02769)
T1 construct: Rat liver microsome, the source of enzyme; from tissue; host or cells: rat liver microsomes
T1 sequence (Q02769 1-416): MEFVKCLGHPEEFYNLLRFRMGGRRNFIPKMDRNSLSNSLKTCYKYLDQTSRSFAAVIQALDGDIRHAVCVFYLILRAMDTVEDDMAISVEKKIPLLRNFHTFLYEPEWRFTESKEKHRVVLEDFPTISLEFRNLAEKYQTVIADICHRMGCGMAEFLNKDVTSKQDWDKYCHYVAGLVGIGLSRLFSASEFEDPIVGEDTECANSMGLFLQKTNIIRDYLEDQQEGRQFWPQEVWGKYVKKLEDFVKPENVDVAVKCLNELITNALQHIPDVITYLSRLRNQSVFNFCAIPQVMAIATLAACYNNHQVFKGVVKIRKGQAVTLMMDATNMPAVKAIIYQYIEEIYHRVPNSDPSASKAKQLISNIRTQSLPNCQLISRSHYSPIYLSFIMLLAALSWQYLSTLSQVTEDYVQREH
Test: In vitro inhibition of squalene synthetase
Format: biochemical
Conditions: 10 µM test compound; rat liver microsomes, labelled farnesyl pyrophosphate, 10 minutes at 37 °C; compared to controls with no test compound
Procedure: In vitro inhibition of squalene synthetase may be measured by the following procedure. Rat liver microsomal squalene synthetase activity was measured using farnesyl pyrophosphate as a substrate and quantitating squalene synthesis using labelled farnesyl pyrophosphate and counting the squalene formed. Rat liver microsome, the source of enzyme, was prepared according to the method of Gillies, P. J., et al., Exp. Molc. Pathol. 44: 329-339 (1986), a modification of the procedure of Erickson, S. K., and Cooper, A. D., Metabolism, 29: 991-996 (1980). […] Oxygen was excluded from the closed incubation tube by degassing with nitrogen. The reaction was terminated by the addition of ethanolic KOH and after degassing with N2, the microsomal membranes were solubilized by heating at 60 °C for 30 minutes. The squalene was extracted into hexane, and the squalene was separated from all other radioactive molecules by passage over an activated alumina column. […] The per cent inhibition at a dose of 10 µM (or 1 µM) compared to controls with no test compound was determined. […]

Row | Compound | inhibition at 10 µM [%]
1 | CCCN(Cc1ccc(Oc2ccccc2)cc1)C(=O)[C@@H]1[C@H](C(=O)O)[C@@H](C(=O)OC)[C@H]1C(=O)N(CCC)Cc1ccc(Oc2ccccc2)cc1 (relative stereo) [Example 95, (1α,2β,3β,4α)-1,2-Di[N-propyl-N-(4-phenoxybenzyl)aminocarbonyl]-3-(methoxycarbonyl)cyclobutane-4-carboxylic Acid] | 78
2 | CCCN(Cc1ccc(Oc2ccccc2)cc1)C(=O)[C@@H]1[C@H](C(=O)O)[C@@H](C(=O)NO)[C@H]1C(=O)N(CCC)Cc1ccc(Oc2ccccc2)cc1 (relative stereo) [Example 98C, (1α,2β,3β,4α)-1,2-Di[N-propyl-N-(4-phenoxybenzyl)aminocarbonyl]-3-[(hydroxyamino)carbonyl]cyclobutane-4-carboxylic Acid] | 84
3 | CCCN(Cc1ccc(Oc2ccccc2)cc1)C(=O)[C@@H]1[C@H](C(N)=O)[C@@H](C(=O)O)[C@H]1C(=O)N(CCC)Cc1ccc(Oc2ccccc2)cc1 (relative stereo) [Example 99B, (1α,2β,3β,4α)-3-(Amino)carbonyl-1,2-di[N-propyl-N-(4-phenoxybenzyl)aminocarbonyl]cyclobutane-4-carboxylic Acid] | 80
4 | CCCN(Cc1ccc(Oc2ccccc2)cc1)C(=O)[C@@H]1[C@H](C(=O)O)[C@@H](NS(=O)(=O)C(F)(F)F)[C@H]1C(=O)N(CCC)Cc1ccc(Oc2ccccc2)cc1 (relative stereo) [Example 100C, (1α,2β,3β,4α)-1,2-Di[N-propyl-N-(4-phenoxybenzyl)aminocarbonyl]-3-[(trifluoromethanesulfonyl)amino]cyclobutane-4-carboxylic Acid] | 84
5 | CCCN(Cc1ccc(Oc2ccccc2)cc1)C(=O)[C@@H]1[C@H](C(=O)C=[N+]=[N-])[C@@H](C(=O)C=[N+]=[N-])[C@H]1C(=O)N(CCC)Cc1ccc(Oc2ccccc2)cc1 (relative stereo) [Example 102, (1α,2β,3β,4α)-3,4-Bis(diazoacetyl)-1,2-di[N-propyl-N-(4-phenoxybenzyl)aminocarbonyl]cyclobutane] | 58
6 | CCCN(Cc1ccc(Oc2ccccc2)cc1)C(=O)[C@@H]1[C@H](CC(=O)O)[C@@H](CC(=O)O)[C@H]1C(=O)N(CCC)Cc1ccc(Oc2ccccc2)cc1 (relative stereo) [Example 103B, (1α,2β,3β,4α)-1,2-Di[-N-propyl-N-(4-phenoxybenzyl)aminocarbonyl]cyclobutane-3-4-diacetic acid] | 90
7 | CN(Cc1ccc(OCc2ccccc2)cc1)C(=O)[C@H]1[C@@H](C(=O)O)[C@H](C(=O)O)[C@@H]1C(=O)N(C)Cc1ccc(OCc2ccccc2)cc1 [Example 14, (1α,2β,3β,4α)-1,2-Di(N-methyl-N-(4-benzyloxybenzyl)aminocarbonyl]cyclobutane-3,4-dicarboxylic acid] | 31
8 | O=C(O)[C@H]1[C@H](C(=O)O)[C@H](C(=O)N(Cc2ccccc2)Cc2ccc(Oc3ccccc3)cc2)[C@H]1C(=O)N(Cc1ccccc1)Cc1ccc(Oc2ccccc2)cc1 [Example 15, (1α,2β,3β,4α)-1,2-Di[N-benzyl-N-(4-phenoxybenzyl)aminocarbonyl]cyclobutane-3,4-dicarboxylic acid] | 99
9 | CN(Cc1cccc(Oc2ccccc2)c1)C(=O)[C@H]1[C@@H](C(=O)O)[C@H](C(=O)O)[C@@H]1C(=O)N(C)Cc1cccc(Oc2ccccc2)c1 [Example 18, (1α,2β,3β,4α)-1,2-Di[N-methyl-N-(3-phenoxybenzyl)aminocarbonyl]cyclobutane-3,4-dicarboxylic acid] | 55
10 | O=C(O)[C@H]1[C@H](C(=O)O)[C@H](C(=O)N(Cc2ccc(Oc3ccccc3)cc2)Cc2ccc(Oc3ccccc3)cc2)[C@H]1C(=O)N(Cc1ccc(Oc2ccccc2)cc1)Cc1ccc(Oc2ccccc2)cc1 [Example 19, (1α,2β,3β,4α)-1,2-Di[N,N-di(4-phenoxybenzyl)aminocarbonyl]cyclobutane-3,4-dicarboxylic acid] | 86
11 | CN(Cc1cccc(Oc2ccc(F)cc2)c1)C(=O)[C@H]1[C@@H](C(=O)O)[C@H](C(=O)O)[C@@H]1C(=O)N(C)Cc1cccc(Oc2ccc(F)cc2)c1 [Example 21, (1α,2β,3β,4α)-1,2-Di[N-methyl-N-(3-[4-fluorophenoxy]benzyl)aminocarbonyl]cyclobutane-3,4-dicarboxylic acid] | 52
12 | CN(C(=O)[C@H]1[C@@H](C(=O)O)[C@H](C(=O)O)[C@@H]1C(=O)N(C)c1ccc(-c2ccccc2)cc1)c1ccc(-c2ccccc2)cc1 [Example 22, (1α,2β,3β,4α)-1,2-Di[N-methyl-N-biphenylamino-carbonyl]cyclobutane-2,4-dicarboxylic acid] | 20
13 | CCCN(Cc1ccc(Cc2ccccc2)cc1)C(=O)[C@H]1[C@@H](C(=O)O)[C@H](C(=O)O)[C@@H]1C(=O)N(CCC)Cc1ccc(Cc2ccccc2)cc1 [Example 25, (1α,2β,3β,4α)-1,2-Di[N-propyl-N-(4-benzylbenzyl)aminocarbonyl]cyclobutane-3,4-dicarboxylic acid] | 84
14 | C#CCN(Cc1ccc(Oc2ccccc2)cc1)C(=O)[C@H]1[C@@H](C(=O)O)[C@H](C(=O)O)[C@@H]1C(=O)N(CC#C)Cc1ccc(Oc2ccccc2)cc1 [Example 27, (1α,2β,3β,4α)-1,2-Di[N-propargyl-N-(4-phenoxybenzyl)aminocarbonyl]cyclobutane-3,4-dicarboxylic acid] | 79
15 | O=C(O)[C@H]1[C@H](C(=O)O)[C@H](C(=O)N(Cc2ccc(Oc3ccccc3)cc2)C2CC2)[C@H]1C(=O)N(Cc1ccc(Oc2ccccc2)cc1)C1CC1 [Example 30, (1α,2β,3β,4α)-1,2-Di[N-cyclopropyl-N-(4-phenoxybenzyl)aminocarbonyl]cyclobutane-3,4-dicarboxylic acid] | 67

Same assay, conditions: values marked * in Table 1: 1 µM test compound; rat liver microsomes, labelled farnesyl pyrophosphate, 10 minutes at 37 °C

Row | Compound | inhibition at 1 µM [%]
16 | CCCN(Cc1ccc(Oc2ccccc2)cc1)C(=O)[C@@H]1[C@H](C(=O)O)[C@@H](CC(=O)O)[C@H]1C(=O)N(CCC)Cc1ccc(Oc2ccccc2)cc1 (relative stereo) [Example 101C] | 86
17 | CCCCC(NC(=O)[C@@H]1[C@@H](C(=O)O)[C@@H](C(=O)N(CCC)Cc2ccc(Oc3ccccc3)cc2)[C@@H]1C(=O)N(CCC)Cc1ccc(Oc2ccccc2)cc1)C(=O)O (single isomer, unassigned) [Example 104A, (1α,2β,3β,4α)-1,2-Di[N-propyl-N-(4-phenoxybenzyl)aminocarbonyl]cyclobutane-3,4-dicarboxylic acid Mono-Norleucine Amide] | 70
18 | CCCN(Cc1ccc(Oc2ccccc2)cc1)C(=O)C1C(C(=O)O)C(C(=O)NC(CO)C(=O)O)C1C(=O)N(CCC)Cc1ccc(Oc2ccccc2)cc1 (single isomer, unassigned) [Example 110A, (1α,2β,3β,4α)-1,2-Di[N-propyl-N-(4-phenoxybenzyl)aminocarbonyl]cyclobutane-3.4-dicarboxylic acid mono-Serine amide] | 73
19 | O=C(O)C1C(C(=O)O)C(C(=O)N(Cc2ccc(Oc3ccccc3)cc2)CC2CC2)C1C(=O)N(Cc1ccc(Oc2ccccc2)cc1)CC1CC1 (single isomer, unassigned; (-)) [Example 129B, (-)-(1α,2β,3β,4α)-1,2-Di[N-cyclopropylmethyl-N-(4-phenoxybenzyl)aminocarbonyl]cyclobutane-3,4-dicarboxylic acid] | 92
20 | C=CCN(Cc1ccc(Oc2ccccc2)cc1)C(=O)[C@H]1[C@@H](C(=O)O)[C@H](C(=O)O)[C@@H]1C(=O)N(CC=C)Cc1ccc(Oc2ccccc2)cc1 [Example 29, (1α,2β,3β,4α)-1,2-Di[N-allyl-N-(4-phenoxybenzyl)aminocarbonyl]cyclobutane-3,4-dicarboxylic acid] | 72
21 | O=C(O)[C@H]1[C@H](C(=O)O)[C@H](C(=O)N(Cc2ccc(Oc3ccccc3)cc2)CC2CCCCC2)[C@H]1C(=O)N(Cc1ccc(Oc2ccccc2)cc1)CC1CCCCC1 [Example 31] | 37

Same assay, conditions: values marked * in Table 1: 1 µM test compound; rat liver microsomes, labelled farnesyl pyrophosphate, 10 minutes at 37 °C; 1 µM

Row | Compound | % Inhibition at 1 µM
22 | CCCCC(NC(=O)[C@@H]1[C@@H](C(=O)O)[C@@H](C(=O)N(CCC)Cc2ccc(Oc3ccccc3)cc2)[C@@H]1C(=O)N(CCC)Cc1ccc(Oc2ccccc2)cc1)C(=O)O (single isomer, unassigned) [Example 104B, (1α,2β,3β,4α)-1,2-Di[N-propyl-N-(4-phenoxybenzyl)aminocarbonyl]cyclobutane-3,4-dicarboxylic acid Mono-Norleucine Amide] | 71* %
23 | CCCN(Cc1ccc(Oc2ccccc2)cc1)C(=O)C1C(C(=O)O)C(C(=O)NC(CO)C(=O)O)C1C(=O)N(CCC)Cc1ccc(Oc2ccccc2)cc1 (single isomer, unassigned) [Example 110B, (1α,2β,3β,4α)-1,2-Di[N-propyl-N-(4-phenoxybenzyl)aminocarbonyl]cyclobutane-3,4-dicarboxylic acid mono-Serine amide] | 69* %

Source: patent EP0677039B1, “CYCLOBUTANE DERIVATIVES AS INHIBITORS OF […] SYNTHETASE AND PROTEIN […]” (Abbott Laboratories, priority 1993, dated 1995)
